Measured values as given in patent US20150352108A1, “AMINO-PYRIMIDINE COMPOUNDS AS INHIBITORS OF TBK1 AND/OR IKK EPSILON” (Alzheimer's Institute of America, priority 2009, published 2015).

target: T1, IKKε (Homo sapiens, UniProt Q14164); test: In-vitro IKKε kinase assay ([γ33]ATP filter-plate); assay type: biochemical; conditions: text bins; read-out: IC50 for inhibition of the kinase activity of IKKε
T1 construct: His-tag; made in house; host or cells: Sf9 insect cells
T1 sequence (Q14164 1-716): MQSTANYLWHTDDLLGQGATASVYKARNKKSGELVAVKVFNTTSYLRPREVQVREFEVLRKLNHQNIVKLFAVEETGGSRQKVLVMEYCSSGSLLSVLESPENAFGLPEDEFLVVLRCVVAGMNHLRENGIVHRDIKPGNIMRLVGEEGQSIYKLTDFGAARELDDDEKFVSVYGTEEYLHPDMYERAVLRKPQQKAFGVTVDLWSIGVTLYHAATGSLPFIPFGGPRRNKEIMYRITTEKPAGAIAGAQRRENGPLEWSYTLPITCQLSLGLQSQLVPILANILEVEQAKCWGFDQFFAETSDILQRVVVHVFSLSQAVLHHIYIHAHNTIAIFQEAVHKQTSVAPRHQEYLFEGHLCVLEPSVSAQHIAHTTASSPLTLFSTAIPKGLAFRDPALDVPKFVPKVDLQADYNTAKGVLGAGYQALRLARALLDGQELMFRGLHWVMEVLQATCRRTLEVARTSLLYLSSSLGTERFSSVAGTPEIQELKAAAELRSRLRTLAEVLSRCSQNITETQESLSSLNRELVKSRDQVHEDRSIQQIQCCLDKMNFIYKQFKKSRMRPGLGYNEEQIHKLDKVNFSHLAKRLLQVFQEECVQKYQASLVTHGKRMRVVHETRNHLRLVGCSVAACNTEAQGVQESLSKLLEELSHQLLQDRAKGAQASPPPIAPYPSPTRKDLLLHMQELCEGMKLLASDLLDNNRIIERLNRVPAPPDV
Method: IKKε enzyme was produced as a His-tag fusion in Sf9 cells and used at a final concentration of […]. TBK1 enzyme was produced as a His-tag fusion in Sf9 cells and used at a final concentration of 0.1 μg/ml. Kinase reactions were carried out in reaction buffer using myelin basic protein (Millipore, Ballerica, Mass.) or casein (Sigma, St. Louis, Mo.) as substrate at an ATP concentration equal to twice the Km,ATP value for each enzyme, corresponding to 32 μM ATP for IKKε and 60 μM ATP for TBK1, in the presence of 0.3 μCi [γ^33]ATP (PerkinElmer, Waltham, Mass.). Final enzyme concentrations were 0.1 or 0.015 μg/ml (IKKε) and 0.1 or 0.02 μg/ml (TBK1), representing “normal” and “sensitized” assay conditions respectively. Test compounds (or DMSO solvent as a control) were added prior to initiation of the reactions. Reactions were terminated after 30-45 minutes by adding 3% phosphoric acid. Terminated reactions were transferred to P-81 cellulose phosphate filterplates (Whatman, Inc., Piscataway, N.J.) and washed with 1% phosphoric acid on a vacuum apparatus. After air drying, scintillant (PerkinElmer, Waltham, Mass.) was added and the plates were read on a PerkinElmer TopCount NXT instrument. Counts were normalized to DMSO controls after background subtraction.

SMILES | IC50 [nM]
N#Cc1cc(-c2ccnc(Nc3ccc(N4CCOCC4)cc3)n2)ccc1OCCC1CCNCC1 [compound 472, 5-(2-{[4-(morpholin-4-yl)phenyl]amino}pyrimidin-4-yl)-2-[2-(piperidin-4-yl)ethoxy] benzonitrile] | 50 to 500
CC(=O)N1CCCC(COc2ccc(-c3ccnc(Nc4ccc(N5CCOCC5)cc4)n3)cc2C#N)C1 (stereo not drawn) [Example 161] | 5 to 50
CC(C)C[C@H](O)C(=O)N1CCC(Oc2ccc(-c3ccnc(Nc4ccc(N5CCOCC5)cc4)n3)cc2C#N)CC1 [Example 229, 2-({1-[(2S)-2-hydroxy-4-methylpentanoyl]piperidin-4-yl}oxy)-5-(2-{[4-(morpholin-4-yl)phenyl]amino}pyrimidin-4-yl)benzonitrile] | 5 to 50
N#Cc1cc(-c2ccnc(Nc3ccc(N4CCOCC4)cc3)n2)ccc1NC(=O)N1CCOCC1 [Example 52, N-[2-cyano-4-(2-{[4-(morpholin-4-yl)phenyl]amino}pyrimidin-4-yl)phenyl]morpholin-4-carboxamide] | 50 to 500
N#Cc1cc(-c2ccnc(Nc3cccc(-n4ccnc4)c3)n2)ccc1OC1CCOCC1 [compound 560, 5-(2-{[3-(1H-Imidazol-1-yl)phenyl]amino}pyrimidin-4-yl)-2-(tetrahydro-2H-pyran-4-yloxy)benzonitrile] | < 5
N#Cc1cc(-c2ccnc(Nc3ccc(N4CCOCC4)cc3)n2)ccc1Cl [Example 102, 2-Chloro-5-(2-{[4-(morpholin-4-yl)phenyl]amino}pyrimidin-4-yl)benzonitrile] | 5 to 50
N#Cc1cc(-c2ccnc(Nc3ccc(F)c(F)c3)n2)ccc1O[C@@H]1CCN(C(=O)CO)C1 [compound 582, 5-{2-[(3,4-Difluorophenyl)amino]pyrimidin-4-yl}-2-{[(3R)-1-(hydroxyacetyl)pyrrolidin-3-yl]oxy}benzonitrile] | 5 to 50
C[C@H](O)C(=O)N1CC(Oc2ccc(-c3ccnc(Nc4ccc(N5CCOCC5)cc4)n3)cc2C#N)C1 [Example 249, 2-({1-[(2S)-2-hydroxypropanoyl]azetidin-3-yl}oxy)-5-(2-{[4-(morpholin-4-yl)phenyl]amino}pyrimidin-4-yl)benzonitrile] | 50 to 500
COc1ccc(-c2ccnc(Nc3cc(CN4CCC[C@H]4C(=O)N(C)C)c(OC)c(OC)c3)n2)cc1C#N [Example 245, 1-(5-{[4-(3-Cyano-4-methoxyphenyl)pyrimidin-2-yl]amino}-2,3-dimethoxybenzyl)-N,N-dimethylprolinamide] | 50 to 500
COC1CN(C(C)c2ccc(Nc3nccc(-c4ccc(O[C@@H]5CCN(C(=O)CO)C5)c(C#N)c4)n3)cc2)C1 (stereo partly drawn) [compound 602] | 5 to 50
COc1ccc(-c2ccnc(Nc3cccc(S(=O)(=O)NCCO)c3)n2)cc1C#N [compound 309, 3-{[4-(3-Cyano-4-methoxyphenyl)pyrimidin-2-yl]amino}-N-(2-hydroxyethyl) benzenesulfonamide] | 50 to 500
N#Cc1cc(-c2ccnc(Nc3ccc(N4CCOCC4)cc3)n2)ccc1NC(=O)C(F)(F)C(F)F [compound 441, N-[2-Cyano-4-(2-{[4-(morpholin-4-yl)phenyl]amino}pyrimidin-4-yl)phenyl]-2,2,3,3-tetrafluoropropanamide] | 5 to 50
N#Cc1cc(-c2ccnc(Nc3ccc(N4CCOCC4)cc3)n2)ccc1OCC1CNC1 [Example 39, 2-(azetidin-3-ylmethoxy)-5-(2-{[4-(morpholin-4-yl)phenyl]amino}pyrimidin-4-yl)benzonitrile] | 5 to 50
CC(C)(N)C(=O)N1CCC(COc2ccc(-c3ccnc(Nc4ccc(N5CCOCC5)cc4)n3)cc2C#N)CC1 [Example 255, 2-{[1-(2-methylalanyl)piperidin-4-yl]methoxy}-5-(2-{[4-(morpholin-4-yl)phenyl]amino}pyrimidin-4-yl)benzonitrile] | 50 to 500
CN(C)CCOc1ccc(-c2ccnc(Nc3ccc(N4CCOCC4)cc3)n2)cc1C#N [Example 58, 2-[2-(Dimethylamino)ethoxy]-5-(2-{[4-(morpholin-4-yl)phenyl]amino}pyrimidin-4-yl)benzonitrile] | 5 to 50
CC(C)(O)CNC(=O)Nc1cccc(Nc2nccc(-c3ccc(OC4CCOCC4)c(C#N)c3)n2)c1 [compound 649, 1-[3-({4-[3-Cyano-4-(tetrahydro-2H-pyran-4-yloxy)phenyl]pyrimidin-2-yl}amino)phenyl]-3-(2-hydroxy-2-methylpropyl)urea] | < 5
C[C@H](O)C(=O)NCCOc1ccc(-c2ccnc(Nc3ccc(N4CCOCC4)cc3)n2)cc1C#N [Example 250, (2S)-N-{2-[2-cyano-4-(2-{[4-(morpholin-4-yl)phenyl]amino}pyrimidin-4-yl)phenoxy]ethyl}-2-hydroxypropanamide] | 50 to 500
COc1ccc(-c2ccnc(Nc3ccc(S(=O)(=O)N4CCN(C)CC4)cc3)n2)cc1C#N [compound 308, 2-Methoxy-5-[2-({4-[(4-methylpiperazin-1-yl)sulfonyl]phenyl}amino)pyrimidin-4-yl]benzonitrile] | 50 to 500
CC(=O)N1CC(Oc2ccc(-c3ccnc(Nc4ccc(N5CCOCC5)cc4)n3)cc2C#N)C1 [Example 53, 2-[(1-acetylazetidin-3-yl)oxy]-5-(2-{[4-(morpholin-4-yl)phenyl]amino}pyrimidin-4-yl)benzonitrile] | 50 to 500
CCN(CC)CCN(CC)C(=O)Cc1cccc(Nc2nccc(-c3ccc(NC(=O)C(C)C)c(C#N)c3)n2)c1 [compound 424, N-[2-cyano-4-(2-{[3-(2-{[2-(diethylamino)ethyl] (ethyl)amino}-2-oxoethyl)phenyl]amino}pyrimidin-4-yl)phenyl]-2-methylpropanamide] | 50 to 500
COC1CN(c2cccc(Nc3nccc(-c4ccc(O[C@@H]5CCN(C(=O)CO)C5)c(C#N)c4)n3)c2)C1 [compound 639] | < 5
COc1ccc(-c2ccnc(Nc3cccc(NC(=O)NCCCO)c3)n2)cc1C#N [compound 310, 1-(3-{[4-(3-Cyano-4-methoxyphenyl)pyrimidin-2-yl]amino}phenyl)-3-(3-hydroxypropyl)urea] | 5 to 50
C[C@H](O)C(=O)N1CCC(Oc2ccc(-c3ccnc(Nc4ccc(N5CCOCC5)cc4)n3)cc2C#N)C1 (stereo partly drawn) [Example 192, 2-({1-[(2S)-2-hydroxypropanoyl]pyrrolidin-3-yl}oxy)-5-(2-{[4-(morpholin-4-yl)phenyl]amino}pyrimidin-4-yl)benzonitrile] | 5 to 50
CN(C)CC(=O)N1CCC(Oc2ccc(-c3ccnc(Nc4ccc(N5CCOCC5)cc4)n3)cc2C#N)CC1 [Example 160, 2-{[1-(N,N-dimethylglycyl)piperidin-4-yl]oxy}-5-(2-{[4-(morpholin-4-yl)phenyl]amino}pyrimidin-4-yl)benzonitrile] | 50 to 500
C[C@@H](O)C(=O)N1CCC(Oc2ccc(-c3ccnc(Nc4ccc(N5CCOCC5)cc4)n3)cc2C#N)CC1 [Example 140, 2-({1-[(2R)-2-hydroxypropanoyl]piperidin-4-yl}oxy)-5-(2-{[4-(morpholin-4-yl)phenyl]amino}pyrimidin-4-yl)benzonitrile] | 5 to 50
N#Cc1cc(-c2ccnc(Nc3ccc(N4CCOCC4)cc3)n2)ccc1O[C@H]1CCN(C(=O)CO)C1 [compound 623, 2-{[(3S)-1-(Hydroxyacetyl)pyrrolidin-3-yl]oxy}-5-(2-{[4-(morpholin-4-yl)phenyl]amino}pyrimidin-4-yl)benzonitrile] | 5 to 50
N#Cc1cc(-c2ccnc(Nc3ccc(N4CCOCC4)cc3)n2)ccc1OC1CN(C=O)C1 [Example 101, 2-[(1-formylazetidin-3-yl)oxy]-5-(2-{[4-(morpholin-4-yl)phenyl]amino}pyrimidin-4-yl)benzonitrile] | 50 to 500
COc1cc(Nc2nccc(-c3ccc(OC4CCNCC4)c(C#N)c3)n2)ccc1S(=O)(=O)NCCCN(C)C [compound 398] | 50 to 500
N#Cc1cc(-c2ccnc(Nc3ccc(-c4cn[nH]c4)cc3)n2)ccc1OC1CCOCC1 [compound 579, 5-(2-{[4-(1H-Pyrazol-4-yl)phenyl]amino}pyrimidin-4-yl)-2-(tetrahydro-2H-pyran-4-yloxy)benzonitrile] | < 5
COc1ccc(-c2ccnc(Nc3ccc(NC(=O)NCCO)cc3)n2)cc1C#N [Example 9, 1-(4-{[4-(3-Cyano-4-methoxyphenyl)pyrimidin-2-yl]amino}phenyl)-3-(2-hydroxyethyl)urea] | 50 to 500
